From EP4786487A1, “PEPTIDE” (Peptidream Inc, priority 2023, dated 2025)
Where two headings read alike, the source gives them in different places. Starred links: 1 amine or outer side, 2 acyl side, 3 side chain; linkers in the order of their positions; H or OH if unused. Positions of bridges follow the written chain, without caps; N, C: chain ends. Non-standard residues stand in square brackets, D forms with d. Residues, ends and D or L forms follow the SMILES beside them. *: point of attachment. Phe(3-OCH2COOH) = N[C@@H](Cc1cccc(OCC(=O)O)c1)C(=O)O; Piperidine(4-CH2CH2CONH2) = NC(=O)CCC1CCN(*)CC1; Trp(6-OH) = N[C@@H](Cc1c[nH]c2cc(O)ccc12)C(=O)O; Phe(4-COOH) = N[C@@H](Cc1ccc(C(=O)O)cc1)C(=O)O; Piperazinyl(4-CH2COOH) = O=C(O)CN1CCN(*)CC1; Bip = N[C@@H](Cc1ccc(-c2ccccc2)cc1)C(=O)O; Gly(decyl) = CCCCCCCCCC[C@H](N)C(=O)O; Gly(N(CH2)3COOH) = O=C(O)CCCNCC(=O)O; Gly(octyl) = CCCCCCCC[C@H](N)C(=O)O; X1 = CCCCCCC[C@H](N[*:1])C(=O)[*:2]; NMeF = CN[C@@H](Cc1ccccc1)C(=O)O; NMeE = CN[C@@H](CCC(=O)O)C(=O)O; NMeA = CN[C@@H](C)C(=O)O; NEtG = CCNCC(=O)O; Sar = CNCC(=O)O

Legend:
Type in all cases: cell-based
[1] = target: T1, GDF-11 (Homo sapiens, UniProt O95390); experiment: Reporter gene assay for myostatin signaling in HepG2 cell line, Evaluation Procedure (1), GDF-11 inhibition; settings: read-out: IC50 (Luciferase) GDF-11 HepG2
T1 construct: purchased R&D systems 1958-GD-G8/CF
T1 sequence (O95390 299-407): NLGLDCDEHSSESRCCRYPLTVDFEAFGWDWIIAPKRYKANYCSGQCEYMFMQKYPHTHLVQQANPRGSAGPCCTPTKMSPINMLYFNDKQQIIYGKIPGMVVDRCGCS
Procedure, shortened: (§1)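 HepG2 cells transfected with pGL3(CAGA)12-luciferase reporter, serum-starved in 0.1% BSA medium, then stimulated with myostatin or GDF-11 plus 4-fold peptide dilutions (0.006–100 nmol/L for myostatin, 0.12–2000 nmol/L for GDF-11) for 20–24 h at 37 °C. Luminescence read with One-Glo; IC50 calculated.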

[2] = target: T2, Myostatin (Homo sapiens, UniProt O14793); experiment: Reporter gene assay for myostatin signaling in HepG2 cell line, Evaluation Procedure (1), myostatin inhibition; settings: read-out: IC50 (Luciferase) Myostatin HepG2
T2 construct: active myostatin (also called mature myostatin) is a homodimer consisting of two C-terminal growth factor domains; purchased R&D systems 788-G8/CF
T2 sequence (O14793 267-375): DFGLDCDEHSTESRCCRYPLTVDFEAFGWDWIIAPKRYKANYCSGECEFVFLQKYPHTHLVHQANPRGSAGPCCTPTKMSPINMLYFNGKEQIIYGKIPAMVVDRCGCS
Procedure, shortened: as §1

[3] = test system: Myostatin; experiment: as above; settings: GDF-11 IC50 versus Myostatin IC50
Procedure, shortened: as §1

| SMILES | IC50 ([1]; Method A: GDF-11 10 ng/mL) [nM] | IC50 ([2]; Method A: Myostatin 10 ng/mL) [nM] | Selectivity ([3]; Method A) | IC50 ([1]; Method D: GDF-11 1.5 ng/mL) [nM] | IC50 ([2]; Method D: Myostatin 1.5 ng/mL) [nM] | Selectivity ([3]; Method D) |
| --- | --- | --- | --- | --- | --- | --- |
| CCCCCCCC[C@@H]1NC(=O)[C@H](Cc2ccccc2)N(C)C(=O)[C@H](CCCNC(=N)N)NC(=O)[C@H](Cc2ccc(C(=O)O)cc2)NC(=O)[C@H](Cc2cccc(OCC(=O)O)c2)NC(=O)CN(C)C(=O)[C@H]([C@@H](C)CC)NC(=O)[C@H](Cc2ccccc2)N(C)C(=O)[C@H](Cc2ccc(O)cc2)NC(=O)[C@H](Cc2c[nH]c3ccccc23)NC(=O)[C@H](C)NC(=O)CN(CCCC(=O)O)C(=O)CSC[C@H](C(=O)O)NC(=O)[C@H](Cc2ccccc2)N(C)C(=O)[C@H](C)N(C)C1=O [Myostatin_99_v200] ({CH2CO}-[Gly(N(CH2)3COOH)]AWY[NMeF]I[Sar][Phe(3-OCH2COOH)][Phe(4-COOH)]R[NMeF][Gly(octyl)][NMeA][NMeF][dC]-OH; thioether N-15) | 233 | 1 | 233 |  |  |  |
| CC[C@H](C)[C@@H]1NC(=O)[C@H](Cc2ccccc2)N(C)C(=O)[C@H](Cc2ccc(O)cc2)NC(=O)[C@H](Cc2c[nH]c3ccccc23)NC(=O)[C@H](CO)NC(=O)CN(CCCC(=O)O)C(=O)CSC[C@H](C(=O)O)NC(=O)[C@H](Cc2ccccc2)N(C)C(=O)[C@H](C)N(C)C(=O)[C@H](CC(C)C)NC(=O)[C@H](Cc2ccccc2)N(C)C(=O)[C@H](CCCNC(=N)N)NC(=O)[C@H](Cc2ccc(C(=O)O)cc2)NC(=O)[C@H](Cc2ccc(O)cc2)NC(=O)CN(C)C1=O [Myostatin_99_v171] ({CH2CO}-[Gly(N(CH2)3COOH)]SWY[NMeF]I[Sar]Y[Phe(4-COOH)]R[NMeF]L[NMeA][NMeF][dC]-OH; thioether N-15) | 909 | 44.7 | 20 |  |  |  |
| CCCCCCCCCC[C@@H]1NC(=O)[C@H](Cc2ccccc2)N(C)C(=O)[C@H](CCCNC(=N)N)NC(=O)[C@H](Cc2ccc(C(=O)O)cc2)NC(=O)[C@H](Cc2cccc(OCC(=O)O)c2)NC(=O)[C@H]2CCCN2C(=O)[C@H]([C@@H](C)CC)NC(=O)[C@H](Cc2ccccc2)N(C)C(=O)[C@H](Cc2ccc(O)cc2)NC(=O)[C@H](Cc2c[nH]c3cc(O)ccc23)NC(=O)[C@H](C)NC(=O)[C@H](C)NC(=O)CSC[C@H](C(=O)N2CCC(CCC(N)=O)CC2)NC(=O)[C@H](Cc2ccccc2)N(C)C(=O)[C@H](CCC(=O)O)N(C)C1=O [Myostatin_99_v382] ({CH2CO}-AA[Trp(6-OH)]Y[NMeF]I[dP][Phe(3-OCH2COOH)][Phe(4-COOH)]R[NMeF][Gly(decyl)][NMeE][NMeF][dC]-{Piperidine(4-CH2CH2CONH2)}; thioether N-15) |  |  |  | 29.6 | 0.04 | 711.775 |
| CCCCCCCCCC[C@@H]1NC(=O)[C@H](Cc2ccccc2)N(C)C(=O)[C@H](CCCNC(=N)N)NC(=O)[C@H](Cc2ccc(C(=O)O)cc2)NC(=O)[C@H](Cc2cccc(OCC(=O)O)c2)NC(=O)CN(CC)C(=O)[C@H]([C@@H](C)CC)NC(=O)[C@H](Cc2ccccc2)N(C)C(=O)[C@H](Cc2ccc(O)cc2)NC(=O)[C@H](Cc2c[nH]c3cc(O)ccc23)NC(=O)[C@H](C)NC(=O)[C@H](C)NC(=O)CSC[C@H](C(=O)N2CCN(CC(=O)O)CC2)NC(=O)[C@H](Cc2ccccc2)N(C)C(=O)[C@H](CCC(=O)O)N(C)C1=O [Myostatin_99_v385] ({CH2CO}-AA[Trp(6-OH)]Y[NMeF]I[NEtG][Phe(3-OCH2COOH)][Phe(4-COOH)]R[NMeF][Gly(decyl)][NMeE][NMeF][dC]-{Piperazinyl(4-CH2COOH)}; thioether N-15) |  |  |  | 42.5 | 0.17 | 251.449 |
| CCCCCCC[C@@H]1NC(=O)[C@H](Cc2ccccc2)N(C)C(=O)[C@H](CCCNC(=N)N)NC(=O)[C@H](Cc2ccc(C(=O)O)cc2)NC(=O)[C@H](Cc2ccc(O)cc2)NC(=O)CN(C)C(=O)[C@H]([C@@H](C)CC)NC(=O)[C@H](Cc2ccccc2)N(C)C(=O)[C@H](Cc2ccc(O)cc2)NC(=O)[C@H](Cc2ccc(-c3ccccc3)cc2)NC(=O)[C@H](C)NC(=O)CN(CCCC(=O)O)C(=O)CSC[C@H](C(=O)O)NC(=O)[C@H](Cc2ccccc2)N(C)C(=O)[C@H](C)N(C)C1=O [Myostatin_99_v179] ({CH2CO}-[Gly(N(CH2)3COOH)]A[Bip]Y[NMeF]I[Sar]Y[Phe(4-COOH)]R[NMeF][X1][NMeA][NMeF][dC]-OH; thioether N-15) | 163 | 1.5 | 108 |  |  |  |
